We go through 5 compounds from patent US11040949B2, “Compounds affecting pigment production and methods for treatment of bacterial diseases” (Versitech Limited, priority 2017, dated 2021).

In brackets after ≈: the same amount, converted by molar mass.

Data set [1] addresses 4,4-diapophytoene desaturase (CrtN) (Staphylococcus aureus, UniProt O07855). Particulars: reference [5]; cited from earlier work.
For data set [2], the system named is methicillin-resistant S. aureus (MRSA). In words: MRSA skin infection, wound closure. The conditions noted are these: Day 7. In kind it is in vivo, mice. How it is done: FIG. 11B are photos from the top view of mice with skin infection caused by MRSA before (at Day 0) and after different treatments (at Day 7): top left received 2% mupirocin via topical BID for 7 days; top right received 100 mg/kg linezolid via oral BID for 7 days; bottom received 30 mg/kg IM032 via oral BID for 7 days.
Visual wound healing/closure in different treatment groups of mice can be observed in FIG. 11B.

The subject of data set [3] is S. aureus COL. In words: Bactericidal activity of human polymorphonuclear leukocytes. It is filed as cell-based, Staphylococcus aureus. Particulars: NP16-treated COL vs COL. The method, then:
Bactericidal Activity of Polymorphonuclear Leukocytes
The killing of S. aureus by human polymorphonuclear leukocytes (PMNs) was determined as previously described, with some modifications. Briefly, PMNs (10^6) were mixed with ˜10^7 opsonized S. aureus bacteria MOI=10 in 24-well tissue culture plates. After centrifuged at 380 g for 8 min, plates were incubated at 37° C. for up to 1.5 h. PMNs were lysed with saponin (20 min on ice) and plated on BHIA plates. The percent survival was calculated by normalized with time zero. Statistics were performed with the Student's t-test (GraphPad Prism).

Data set [4] deals with S. aureus COL. In words: Hydrogen peroxide susceptibility assay. In kind it is cell-based, Staphylococcus aureus. Particulars: grown with NP16 (40 μM); 440 mM H2O2, 1 hr. How it is done: (§1) Hydrogen Peroxide Susceptibility Assay
(§2) S. aureus was grown in BHI with or without NP16 (40 μM). After 2 days, bacteria were washed twice in PBS, diluted to a concentration of 1×10^7 CFUs per 100 μl reaction mixture in a 96-well plate. Hydrogen peroxide (H2O2) in PBS was added to a 440 mM final concentration, and the plate was incubated for 1 hr at 37° C. with shaking. The reaction was stopped by the addition of 1,000 U/ml of exogenous catalase (Sigma-Aldrich, St. Louis, Mo.), and bacterial viability was assessed by plating dilutions on BHI agar plates.

The subject of another data set is S. aureus USA300. The data set can be described thus: In vitro staphyloxanthin production inhibition by NP-16 analogues. In kind it is cell-based, Staphylococcus aureus. Particulars: S. aureus USA300, methanol extract OD 450 nm, 300 nM to 700 nM. How it is done:
Evaluation of NP-16 analogues in Staphyloxanthin production
The in vitro pigment inhibition studies were performed by S. aureus USA300 cultured in BHI with or without the presence of inhibitor compounds at 37° C. and 250 rpm for 36-48 hours. The bacteria were washed twice with PBS prior to the staphyloxanthin purification with methanol. The OD of the extracts were monitor at 450 nm using DTX880 multi-plate reader spectrophotometer (Beckman). The concentration range tested for the compounds were between 300 nM to 700 nM, and control groups were added with equal volume of DMSO.
The cytotoxicity of NP-16 and some of its analogues was tested against Raw 264.7 cells, and the cell tolerance of each compounds were documented in Table 3. Along with the in vitro staphyloxanthin production of the NP-16 analogues were being tested, the compounds can exert staphyloxanthin production inhibition. The staphyloxanthin from the overnight-cultured bacteria were extracted with methanol and quantified in via spectrophotometry. The results were presented in relative ratio to NP-16 in both the inhibition ratio as well as the TC50 (concentration for decreasing cell viability by 50%) in Table 3 (sample names correspond to those listed in Table 1).

Data set [5] concerns clinical isolate S. aureus strain AE052. The data set can be described thus: Murine intraperitoneal infection model, kidney bacterial loads. It is filed as in vivo, BALB/c mice. The method, then: (§3) For other S. aureus sub-type, eight- to ten-week-old female BALB/c mice were injected intraperitoneally (i.p) with 4×10^8 CFUs of early stationary phase S. aureus COL. After 3 d, animals were euthanized, the liver and spleen were isolated, homogenized in PBS, and plated on to obtain viable counts. For the treatment study, mice were randomized into two groups at the start of the experiment and administered, i.p., either 0.35 mg of NP16 or PBS with 5% Tween-80 as a control, twice per day, starting on d −1 to d 2 (a total of eight doses for each). Intraperitoneal challenge with 4×10^8 CFUs of early stationary phases S. aureus COL was performed on d 0. The mice were sacrificed on d 3 for enumeration of bacterial CFUs in liver and spleen homogenates.
For the clinical isolate S. aureus strain AE052, all operations were similar to those used for the COL strain, except 10^8 CFUs of early stationary phase bacteria were used in the infection model, and kidneys were collected for monitoring bacterial loads. Statistics were performed using the Student's t-test (GraphPad Prism).
(§4) With the same intraperitoneal challenge used in FIGS. 3a, 3b and 3e, one group of mice (n=14) was treated with 0.35 mg of NP16 twice per day (days −1, 0, 1 and 2), and a second group (n=12) with a vehicle control.

A further data set concerns MDCK cells. The data set can be described thus: Cytotoxic activity on MDCK cells. In kind it is cell-based.
Data set [6] deals with T1, 4,4-diapophytoene desaturase (CrtN) (Staphylococcus aureus, UniProt Q99R76).
T1 construct: made in house; host or cells: E. coli Rosetta (DE3)
T1 sequence (Q99R76 whole entry): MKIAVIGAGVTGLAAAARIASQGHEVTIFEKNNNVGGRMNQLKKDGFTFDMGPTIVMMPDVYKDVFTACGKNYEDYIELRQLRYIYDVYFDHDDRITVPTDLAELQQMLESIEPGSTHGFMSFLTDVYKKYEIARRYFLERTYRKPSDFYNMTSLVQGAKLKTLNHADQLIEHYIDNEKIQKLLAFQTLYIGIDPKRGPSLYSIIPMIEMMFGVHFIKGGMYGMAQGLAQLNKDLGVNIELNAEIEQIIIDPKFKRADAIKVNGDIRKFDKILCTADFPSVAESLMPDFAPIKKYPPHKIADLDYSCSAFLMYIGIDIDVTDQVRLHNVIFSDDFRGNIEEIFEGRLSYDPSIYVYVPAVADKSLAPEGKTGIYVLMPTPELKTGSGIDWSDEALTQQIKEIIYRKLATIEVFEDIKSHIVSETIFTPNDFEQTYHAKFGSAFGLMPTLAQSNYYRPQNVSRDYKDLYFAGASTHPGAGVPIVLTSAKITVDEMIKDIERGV
The data set can be described thus: CrtN enzymatic assay. It is filed as biochemical, S. aureus. The method, then:
crtN Expression, Purification and Enzymatic Assay
CrtN with a histidine-maltose binding protein (MBP) tag was overexpressed in E. coli Rosetta (DE3) cells. A 10 ml overnight culture was transferred into 1 L of LB medium supplemented with 100 μg/ml ampicillin. Induction was carried out with 1 mM IPTG for 12 hours at 16° C. at an OD of 0.6 at 600 nm. The cell lysate was loaded onto a Ni-NTA column, and CrtN was eluted using a 75-ml linear gradient of 0-0.4 M imidazole in 50 mM sodium phosphate buffer, with 400 mM sodium chloride, pH 6.6. The collected fractions were analysed by SDS-PAGE to confirm the peak for MBP-CrtN. The target peak fractions were concentrated and the buffer was exchanged to loading buffer without imidazole using a PD-10 column (GE Healthcare). The collected solution was treated with TEV protease at 4° C. overnight. The protein sample was applied to a maltose column, and the flow-through was collected as native CrtN protein. For enzyme assay, 10 μg of purified CrtN was incubated with 100 μl of 4,4′-diapophytoene liposomes (containing 5 nmol of 4,4′-diapophytoene), 150 μM FAD and buffer II (20 mM phosphate buffer pH 8.0, 100 mM NaCl) in a total volume of 660 μl at 37° C. for 2 h (standard assay). The reaction was stopped by adding 1 volume of CHCl3: MeOH (2:1, v/v). Followed by mixing, the sample was centrifuged at 16,000 g for 10 min. […]

Data set [7] relates to S. aureus COL. In words: Murine intraperitoneal infection model, liver and spleen CFUs. In kind it is in vivo, BALB/c mice. How it is done:
as §3, §4

In the next data set the test system is USA300. The data set can be described thus: Minimum inhibitory concentration (MIC) test. The conditions noted are these: Staphylococcus aureus. It is filed as cell-based. How it is done:
Minimum Inhibitory Concentration (MIC) Tests
MIC was determined by inoculating 5×10^4 S. aureus cells in 100 μl BHI medium in 96-well plates with a serial dilution of antibiotics.

Data set [8] has as its system non-pigmented strain RN6390. In words: Hydrogen peroxide susceptibility assay, non-pigmented strain. Particulars: non-pigmented strain RN6390, with or without NP16. It is filed as cell-based, Staphylococcus aureus. The method, then:
as §1, §2

Data set [9] is described as follows: Solubility in simulated gastric and intestinal fluids. In kind it is physicochemical. The source says: The following table (Table 4) illustrates the solubility of two different compounds, NP16-XL-016 (hereinafter as “IM032”) and NP16-XL-061 (hereinafter as “IM032-C”), in two solutions with different pH values simulating the pH of gastric juice and human intestinal fluid using HCl and phosphate buffer respectively.

Data set [10] is described as follows: Solubility in commonly used solvents for oral administration. It is filed as physicochemical.

Chain of 4,4-diapophytoene desaturase (CrtN) (Staphylococcus aureus, UniProt O07855) (O07855 whole entry): as the sequence (Q99R76 whole entry) above

In the case of `c1ccc(Nc2ccccc2)cc1` [Diphenylamine], the “inhibitor of CrtN, level” value in data set [1] is listed as “high micromolar level”.

In the case of `CC(=O)NC[C@H]1CN(c2ccc(N3CCOCC3)c(F)c2)C(=O)O1` [Linezolid, linezolid, reference compound], the “percentage of wound closure” value in [2] (100 mg/kg oral twice a day) came to 48.4%.

As to `C/C(=C\C(=O)OCCCCCCCCC(=O)O)C[C@@H]1OC[C@H](C[C@@H]2O[C@H]2[C@@H](C)[C@H](C)O)[C@@H](O)[C@H]1O` [Mupirocin, mupirocin, reference compound], the “percentage of wound closure” value in data set [2] (2% topical twice a day) is on record as 43.2%.

As for `O=C(/C=C/c1ccccc1)Nc1ccc(S(=O)(=O)N2CCCC2)cc1` [NP16, 3-phenyl-N-[4-(1-pyrrolidinylsulfonyl)-phenyl]acrylamide], in the data set with S. aureus COL [3], the “survival in human neutrophils” value was “COL survived significantly better than RN6390 and NP16-treated COL”. The results for the “susceptibility to hydrogen peroxide killing” value (in the data set with S. aureus COL [4]; in [8]) were “increase in the susceptibility of the pathogen to hydrogen peroxide killing” and “susceptibility was similar irrespective of NP16 treatment”, respectively. Also, in the data set with S. aureus USA300, the “Relative ratio to NP16 based on inhibition ratio” value is 1. The “bacterial counts in the kidneys” value in [5] (0.35 mg twice per day i.p., 72 hours, vs control group, P<0.001) is “significantly lower”. In data set [5] (n=10, versus 2 of 10 in the control group), the “mice below the detection threshold (kidneys)” value was 6 of 10. For the same compound, the “decrease in surviving bacteria” value (in [5] (treatment group infected with AE052); with S. aureus COL [7] (treatment group infected with COL)) was 98% each time. In the data set with MDCK cells, the “effect on the growth of MDCK cells” value is recorded as “no effect on the growth of MDCK cells”. Moreover, in data set [6], the “inhibition of CrtN” value is on record as “inhibitor for CrtN”. For the same compound, the “bacterial counts in the livers and spleens” value in the data set with S. aureus COL [7] (0.35 mg twice per day i.p. (days -1, 0, 1, 2), 72 hours, vs control group, P<0.01) is recorded as “significantly lower”. In the data set with USA300, this compound returned an MIC above 500 µM.

With `O=C(/C=C/c1ccccc1Cl)Nc1ccc(S(=O)(=O)N2CCCCC2)cc1` [NP16-XL-061, 3-(6-chlorophenyl)-N-[4-(1-piperidine-1-sulfonyl)phenyl]-acrylamide], the “Solubility in pH 2 (0.1N HCl + 0.1% Tween 80)-simulating human stomach” value in data set [9] (pH 2) is “<LOQ”. The solubility in data set [9] (pH 7.4, aqueous with cosolvent or surfactant or cyclodextrin, read-out: Solubility in pH 7.4 (KH2PO4 + 0.1% Tween 80)-simulating human intestine) is 0.0856 µg/mL; in [10] (1:1 Labrasol ALF/PEG300, organic solvent or mixture), 6340 µg/mL (≈ 15.7 mM); in data set [10] (1:1 Labrasol ALF/PEG400, organic solvent or mixture), 7600 µg/mL (≈ 18.8 mM); in [10] (Labrasol ALF, oil or lipid) it was 6080 µg/mL (≈ 15 mM); in [10] (PEG300, organic solvent or mixture), 7150 µg/mL (≈ 17.7 mM); in [10] (PEG400, organic solvent or mixture), 6940 µg/mL (≈ 17.1 mM).
